This note sets out measurements from PubChem BioAssay (NCI).

Among the test systems are ACHN renal; BT-549 breast; HCT-15 colon; HOP-92 NSCLC; MOLT-4 leukemia; NCI-H23 lung; NCI/ADR-RES ovarian; SF-295 CNS; SF-539 CNS; SK-MEL-5 melanoma.
Holding throughout (test): inhibition of tumour cell growth, NCI panel, 48 h

Several values for one entry are separate records, joined by “and”; a condition that tells them apart may be missing. Identical values can stand only once.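 Exposure lasted 48 hours, with cells grown in 96-well plates and compounds tested at five concentrations. GI50 marks 50% less growth. TGI is the concentration that stops growth completely.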 Bounds are passed on as bounds.

Turning to `COc1cc(CCNc2nc3cc(N)cc(N)c3nc2-c2ccccc2)cc(OC)c1`, the GI50 was 1800 nM in the test with ACHN renal; 2480 nM in the test with BT-549 breast; 2430 nM in the test on HCT-15 colon; 1610 nM with HOP-92 NSCLC; 941 nM in the test with MOLT-4 leukemia; 1590 nM in the test on NCI-H23 lung. Besides, the GI50 in the test with NCI/ADR-RES ovarian was 2610 nM; in the test on SF-295 CNS it was 1770 nM; in the test with SF-539 CNS, 2190 nM; with SK-MEL-5 melanoma, 1790 nM. Further, the TGI came to 3.27 µM in the test with ACHN renal; 5.47 µM with BT-549 breast; 7.42 µM with HCT-15 colon; 3.44 µM in the test with HOP-92 NSCLC; 2.67 µM in the test with MOLT-4 leukemia; 3.58 µM in the test with NCI-H23 lung. Moreover, the TGI is 6.3 µM with NCI/ADR-RES ovarian, 3.47 µM in the test on SF-295 CNS, 4.14 µM in the test with SF-539 CNS and 3.36 µM with SK-MEL-5 melanoma.
Take `CN1CCN(CCCN2c3ccccc3Sc3ccc(C(F)(F)F)cc32)CC1`: the GI50 with ACHN renal was 2100 nM; with BT-549 breast it was 3710 nM; in the test with HCT-15 colon it was 2430 nM; in the test with HOP-92 NSCLC it was 1070 nM and 2260 nM and 7540 nM; with MOLT-4 leukemia, 2350 nM; in the test with NCI-H23 lung, 3290 nM. The GI50 in the test with NCI/ADR-RES ovarian was 1910 nM; in the test on SF-295 CNS, 1760 nM; in the test with SF-539 CNS it was 1940 nM; in the test with SK-MEL-5 melanoma, 1650 nM. Besides, the TGI in the test with ACHN renal is 4.67 µM and 23.3 µM and 24.7 µM; in the test with BT-549 breast it was 14.5 µM and 29.3 µM and 28.1 µM; in the test on HCT-15 colon, 6.57 µM and 17.3 µM and 21.3 µM; with HOP-92 NSCLC, 4.35 µM and 10.4 µM and 20.5 µM; in the test with MOLT-4 leukemia, 4.92 µM and 10.8 µM and 20.6 µM; in the test on NCI-H23 lung it was 14.1 µM and 26.7 µM and 27.7 µM. Also, the TGI in the test with NCI/ADR-RES ovarian was 4.61 µM and 25 µM and 25.5 µM; with SF-295 CNS, 3.68 µM and 15.8 µM and 23.2 µM; in the test with SF-539 CNS, 4.12 µM and 18.6 µM and 20.1 µM; with SK-MEL-5 melanoma it was 3.04 µM and 4.34 µM and 6.17 µM.
`CNC(=O)c1c(NC(=O)c2ccc(C(C)C)cc2)sc2c1CCC(=O)C2`: the GI50 was 279 nM with ACHN renal; 505 nM with BT-549 breast; 216 nM in the test on HCT-15 colon; 703 nM in the test with HOP-92 NSCLC; 500 nM with MOLT-4 leukemia; 418 nM in the test with NCI-H23 lung. The GI50 was 461 nM in the test on NCI/ADR-RES ovarian, 1130 nM in the test with SF-295 CNS, 306 nM with SF-539 CNS and 605 nM in the test with SK-MEL-5 melanoma. Also, the TGI is 1.14 µM in the test with ACHN renal; 2.71 µM in the test on BT-549 breast; 1.47 µM with HCT-15 colon; 3.39 µM in the test on HOP-92 NSCLC; 7.91 µM with MOLT-4 leukemia; 3.92 µM with NCI-H23 lung. Also, the TGI amounted to 2.24 µM in the test with NCI/ADR-RES ovarian, 3.35 µM in the test on SF-295 CNS, 1.22 µM with SF-539 CNS and 1.7 µM in the test with SK-MEL-5 melanoma.
Regarding `Cc1csc(-c2ccc3c(c2)COC3(CCCN(C)C)c2ccc(F)cc2)c1` (stereo not given), the GI50 in the test on ACHN renal was 1740 nM; in the test on BT-549 breast it was 1600 nM; in the test on HCT-15 colon, 1850 nM; with HOP-92 NSCLC it was 1600 nM; with MOLT-4 leukemia, 2550 nM; in the test with NCI-H23 lung, 1830 nM. Also, the GI50 is 1810 nM in the test with NCI/ADR-RES ovarian, 1840 nM in the test with SF-295 CNS, 1800 nM in the test with SF-539 CNS and 1820 nM with SK-MEL-5 melanoma. For the same compound, the TGI in the test on ACHN renal is 3.14 µM; in the test with BT-549 breast, 3.2 µM; with HCT-15 colon, 3.51 µM; with HOP-92 NSCLC it was 3.17 µM; in the test on MOLT-4 leukemia, 6.69 µM; with NCI-H23 lung, 3.44 µM. The TGI stood at 3.44 µM in the test on NCI/ADR-RES ovarian, 3.52 µM in the test on SF-295 CNS, 3.22 µM in the test on SF-539 CNS and 3.26 µM with SK-MEL-5 melanoma.
For the compound `COc1cccc2cc(-c3nc(C4CCC(C(=O)O)CC4)n4ncnc(N)c34)[nH]c12` (stereo not given), the GI50 is 420 nM and 1030 nM with ACHN renal; 93.9 nM and 168 nM in the test with BT-549 breast; 558 nM and 973 nM in the test on HCT-15 colon; 15.8 nM and 32.7 nM in the test on HOP-92 NSCLC; 400 nM and 767 nM with MOLT-4 leukemia; 634 nM and 734 nM in the test with NCI-H23 lung. Further, the GI50 in the test on NCI/ADR-RES ovarian was 406 nM and 804 nM; with SF-295 CNS it was 233 nM and 647 nM; with SF-539 CNS it was 309 nM and 516 nM; in the test with SK-MEL-5 melanoma it was 313 nM and 790 nM. For the same compound, the TGI in the test on ACHN renal was 15.5 µM and > 10 µM; with BT-549 breast, 1.06 µM and 1.49 µM; in the test on HCT-15 colon it was more than 100 µM; in the test on HOP-92 NSCLC, 0.0988 µM and 0.358 µM; in the test on MOLT-4 leukemia, more than 40.8 µM; in the test on NCI-H23 lung, 18.4 µM and > 10 µM. For the same compound, the TGI was 10.3 µM and > 10 µM in the test on NCI/ADR-RES ovarian; 2.1 µM and 4.36 µM in the test on SF-295 CNS; 2.71 µM and 4.09 µM in the test with SF-539 CNS; 4.19 µM and 5.7 µM with SK-MEL-5 melanoma.
Turning to `COc1ccc(C(=O)C(CC2C(=O)CC(C)(C)C(C(=O)C(=O)Nc3c(C)cccc3C)C2=O)c2ccc(OC)cc2)cc1` (stereo not given), the TGI in the test with ACHN renal, with BT-549 breast, in the test with HCT-15 colon, in the test with HOP-92 NSCLC, in the test with MOLT-4 leukemia and in the test on NCI-H23 lung was more than 100 µM in each case. The TGI with NCI/ADR-RES ovarian, in the test on SF-295 CNS, in the test with SF-539 CNS and in the test on SK-MEL-5 melanoma was more than 100 µM each time.
Consider `O=C(Nc1ccc(O)c(NS(=O)(=O)c2ccc(F)cc2)c1)c1ccc(-c2ccccc2)cc1`, for which the GI50 is 6300 nM with ACHN renal; 4600 nM in the test on BT-549 breast; 4360 nM in the test on HCT-15 colon; 2680 nM in the test with HOP-92 NSCLC; 2580 nM in the test with MOLT-4 leukemia; 10500 nM in the test on NCI-H23 lung. The GI50 in the test on NCI/ADR-RES ovarian was 5670 nM; in the test on SF-295 CNS, 9710 nM; in the test with SF-539 CNS, 8930 nM; with SK-MEL-5 melanoma, 6420 nM. For the same compound, the TGI amounted to 25.7 µM in the test with ACHN renal; 20.2 µM in the test on BT-549 breast; 17.3 µM in the test with HCT-15 colon; 17.1 µM in the test with HOP-92 NSCLC; 11 µM in the test on MOLT-4 leukemia; 24.3 µM in the test on NCI-H23 lung. The TGI with NCI/ADR-RES ovarian amounted to 20.7 µM; in the test on SF-295 CNS, 24 µM; in the test with SF-539 CNS, 22.4 µM; in the test with SK-MEL-5 melanoma it was 19.3 µM.
Take `NCC(=O)NC(CO)C(=O)O` (stereo not given): the TGI in the test on ACHN renal, in the test with BT-549 breast, in the test with HCT-15 colon, in the test with HOP-92 NSCLC, in the test with MOLT-4 leukemia and with NCI-H23 lung was more than 100 µM each time. Further, the TGI in the test with NCI/ADR-RES ovarian, with SF-295 CNS, with SF-539 CNS and in the test on SK-MEL-5 melanoma was more than 100 µM each time.
With `O=C(NCc1cccs1)OC1CC2CCC1C2` (stereo not given), the TGI in the test on ACHN renal, in the test with BT-549 breast, with HCT-15 colon, in the test on HOP-92 NSCLC, with MOLT-4 leukemia and with NCI-H23 lung was more than 100 µM in each case. In addition, the TGI with NCI/ADR-RES ovarian, in the test on SF-295 CNS, in the test on SF-539 CNS and with SK-MEL-5 melanoma was more than 100 µM throughout.
